The results in this text go back to patent US20260231941A1, “HERBICIDAL COMPOSITIONS” (SYNGENTA CROP PROTECTION AG, priority 2023, published 2026).

Holding throughout (test): Post-emergence efficacy, glasshouse, percentage damage to plant
Holding throughout (format): in vivo

In assay [1] the test system is Abutilon theophrasti (ABUTH). As to conditions: 14 days, Table B7. An excerpt: (§1) Seeds of a variety of test species are sown in standard soil in pots (Digitaria sanguinalis (DIGSA), Echinochloa crus-galli (ECHCG), Setaria faberi (SETFA), Stellaria media (STEME), Amaranthus retroflexus (AMARE), Chenopodium album (CHEAL), Abutilon theophrasti (ABUTH), Ipomoea hederacea (IPOHE), Phalaris minor (PHAMI), Eleusine indica (ELEIN), Sorghum bicolor (SORVU), Euphorbia heterophylla (EPHHL), Fallopia convolvulus (POLCO)), and cultivated under controlled conditions in a glasshouse (at 24/16° C., day/night; 14 hours light; 65% humidity), the plants are sprayed with an aqueous spray solution derived from the dissolution of Component (A) in acetone and IF50 (11.12% Emulsogen EL360 TM+44.44% N-methylpyrrolidone+44.44% Dowanol DPM glycol ether) and Component (B) which was then diluted to the required concentration using 0.2% Genapol XO80 (CAS No. 9043-30-5) in water as the diluent. Test compounds or compositions are applied at the rates stated. The test plants are then grown in a glasshouse under controlled conditions in a glasshouse (at […], day/night; 14 hours light; 65% humidity) and watered twice daily. After 14 days, the test is evaluated for the percentage damage caused to the plant (100=total damage to plant; 0=no damage to plant), and the result are shown below in table B1 to B18.

The test system of assay [2] is Amaranthus retroflexus (AMARE). As to conditions: 14 days.
From the text: as §1

Assay [3] deals with Chenopodium album (CHEAL). As to conditions: 14 days, Table B6.
From the text: as §1

Assay [4] deals with Digitaria sanguinalis (DIGSA). As to conditions: 14 days, Table B1.
From the text: as §1

The test system of assay [5] is Echinochloa crus-galli (ECHCG). As to conditions: growth stage 4 true leaves, 14 days.
From the text: as §1

A further assay has as its system Eleusine indica (ELEIN). As to conditions: 14 days, Table B17.
From the text: as §1

For assay [6], the system named is Euphorbia heterophylla (EPHHL). As to conditions: 14 days, Table B11.
From the text: as §1

The subject of assay [7] is Fallopia convolvulus (POLCO). As to conditions: 14 days.
From the text: as §1

In assay [8] the test system is Ipomoea hederacea (IPOHE). As to conditions: 14 days.
From the text: as §1

The subject of the next assay is Phalaris minor (PHAMI). As to conditions: 14 days, Table B9.
From the text: as §1

For another assay, the system named is Setaria faberi (SETFA). As to conditions: 14 days, Table B3.
From the text: as §1

The subject of the next assay is Sorghum bicolor (SORVU). As to conditions: 14 days, Table B10.
From the text: as §1

In another assay the test system is Stellaria media (STEME). As to conditions: 14 days.
From the text: as §1

Setting [9] is: Compound (Ia) 0.46875 g/Ha alone.
Where [10] appears, read: Compound (Ia) 0.9375 g/Ha alone.

For `CCOC(=O)C1(C)CC(c2cc(-n3c(=O)cc(C(F)(F)F)n(C)c3=O)c(F)cc2Cl)=NO1` (stereo not drawn) [Compound (Ia)], the “Observed Activity” value was 25.0% in assay [1] (setting [9]); 67.5% in assay [1] (setting [10]); 88.8% in assay [1] (Compound (Ia) 1.875 g/Ha alone); 51.3% in assay [2] (Compound (Ia) 0.9375 g/Ha alone, Table B5); 51.3% in assay [2] (Compound (Ia) 0.9375 g/Ha alone, Table B15); 73.8% in [2] (Compound (Ia) 1.875 g/Ha alone, Table B5). The “Observed Activity” value in [3] (Compound (Ia) 1.875 g/Ha alone) is reported as 77.5%; in assay [4] (setting [10]), 23.8%; in [5] (Compound (Ia) 3.75 g/Ha alone, Table B2), 52.5%; in assay [5] (Compound (Ia) 3.75 g/Ha alone, Table B13), 31.3%; in assay [5] (Compound (Ia) 7.5 g/Ha alone, Table B2) it was 68.8%; in [5] (Compound (Ia) 7.5 g/Ha alone, Table B13) it was 47.5%. The “Observed Activity” value with Eleusine indica (ELEIN) (setting [9]) is recorded as 37.5%; in the assay with Eleusine indica (ELEIN) (Compound (Ia) 7.5 g/Ha alone) it was 89.8%; in assay [6] (setting [10]) it was 33.3%; in assay [6] (Compound (Ia) 1.875 g/Ha alone), 45.3%; in [7] (Compound (Ia) 0.9375 g/Ha alone, Table B18), 82.0%; in assay [7] (Compound (Ia) 1.875 g/Ha alone, Table B12) it was 79.8%. Further, the “Observed Activity” value in [7] (Compound (Ia) 1.875 g/Ha alone, Table B18) came to 79.8%; in assay [8] (Compound (Ia) 0.46875 g/Ha alone, Table B8), 53.8%; in assay [8] (Compound (Ia) 0.46875 g/Ha alone, Table B16), 53.8%; in assay [8] (Compound (Ia) 1.875 g/Ha alone, Table B8), 83.8%; in assay [8] (Compound (Ia) 1.875 g/Ha alone, Table B16), 83.8%; in the assay on Phalaris minor (PHAMI) (setting [9]), 7.5%. For the same compound, the “Observed Activity” value with Phalaris minor (PHAMI) (setting [10]) worked out at 11.3%; with Phalaris minor (PHAMI) (Compound (Ia) 1.875 g/Ha alone), 25.8%; with Phalaris minor (PHAMI) (Compound (Ia) 3.75 g/Ha alone), 57.0%; with Phalaris minor (PHAMI) (Compound (Ia) 7.5 g/Ha alone), 72.8%; in the assay on Setaria faberi (SETFA) (Compound (Ia) 3.75 g/Ha alone), 73.8%; in the assay on Sorghum bicolor (SORVU) (Compound (Ia) 7.5 g/Ha alone) it was 72.3%. The “Observed Activity” value with Stellaria media (STEME) (Compound (Ia) 0.9375 g/Ha alone, Table B4) was 27.5%; in the assay on Stellaria media (STEME) (Compound (Ia) 1.875 g/Ha alone, Table B4), 43.8%; in the assay on Stellaria media (STEME) (Compound (Ia) 7.5 g/Ha alone, Table B14) it was 67.5%.

Turning to `CP(=O)(O)CCC(N)C(=O)O` (stereo not drawn) [Glufosinate, glufosinate], the “Observed Activity” value in [1] (Glufosinate 7.5 g/Ha alone) was determined as 7.5%; in assay [1] (Glufosinate 15 g/Ha alone), 10.0%; in assay [2] (Glufosinate 7.5 g/Ha alone, Table B5) it was 0.0%; in assay [2] (Glufosinate 15 g/Ha alone, Table B5) it was 0.0%; in [2] (Glufosinate 30 g/Ha alone, Table B5), 2.5%; in assay [3] (Glufosinate 15 g/Ha alone), 0.0%. Further, the “Observed Activity” value in assay [4] (Glufosinate 7.5 g/Ha alone) is 5.0%; in assay [5] (Glufosinate 30 g/Ha alone, Table B2), 47.5%; in assay [5] (Glufosinate 60 g/Ha alone, Table B2), 67.5%; in assay [5] (Glufosinate 120 g/Ha alone, Table B2), 91.5%; in assay [6] (Glufosinate 3.75 g/Ha alone), 12.5%; in assay [6] (Glufosinate 7.5 g/Ha alone), 12.5%. For the same compound, the “Observed Activity” value was 7.5% in assay [7] (Glufosinate 7.5 g/Ha alone, Table B12); 2.5% in assay [8] (Glufosinate 7.5 g/Ha alone, Table B8); 7.5% in [8] (Glufosinate 30 g/Ha alone, Table B8); 2.5% with Phalaris minor (PHAMI) (Glufosinate 1.875 g/Ha alone); 5.0% in the assay with Phalaris minor (PHAMI) (Glufosinate 3.75 g/Ha alone); 12.5% with Phalaris minor (PHAMI) (Glufosinate 7.5 g/Ha alone). Besides, the “Observed Activity” value in the assay on Phalaris minor (PHAMI) (Glufosinate 15 g/Ha alone) was determined as 7.5%; in the assay on Phalaris minor (PHAMI) (Glufosinate 30 g/Ha alone) it was 12.5%; in the assay on Setaria faberi (SETFA) (Glufosinate 30 g/Ha alone), 15.0%; in the assay with Sorghum bicolor (SORVU) (Glufosinate 30 g/Ha alone) it was 24.0%; in the assay on Stellaria media (STEME) (Glufosinate 7.5 g/Ha alone, Table B4), 0.0%; in the assay with Stellaria media (STEME) (Glufosinate 30 g/Ha alone, Table B4), 2.5%.

Regarding `CP(=O)(O)CC[C@H](N)C(=O)O` [L-Glufosinate, L-glufosinate], the “Observed Activity” value in assay [2] (L-Glufosinate 7.5 g/Ha alone, Table B15) was 5.0%; in assay [2] (L-Glufosinate 15 g/Ha alone, Table B15) it was 7.5%; in assay [5] (L-Glufosinate 30 g/Ha alone, Table B13), 5.0%; in assay [5] (L-Glufosinate 60 g/Ha alone, Table B13), 22.5%; in assay [5] (L-Glufosinate 120 g/Ha alone, Table B13) it was 32.5%; with Eleusine indica (ELEIN) (L-Glufosinate 1.875 g/Ha alone), 0.0%. Also, the “Observed Activity” value in the assay with Eleusine indica (ELEIN) (L-Glufosinate 30 g/Ha alone) is 20.0%; in assay [7] (L-Glufosinate 3.75 g/Ha alone, Table B18) it was 10.0%; in assay [7] (L-Glufosinate 7.5 g/Ha alone, Table B18), 25.0%; in assay [8] (L-Glufosinate 7.5 g/Ha alone, Table B16) it was 5.0%; in [8] (L-Glufosinate 15 g/Ha alone, Table B16) it was 15.0%; in the assay on Stellaria media (STEME) (L-Glufosinate 120 g/Ha alone, Table B14), 32.5%.
